Laboratory results from patent US9403997B2, “Non-VOC neutralizing agents for coatings” (Hercules Incorporated, priority 2012, dated 2016).

How the values were obtained:
[1] = Neutralizing agents tested in paint: viscosity, pH, gloss and yellowing compared to AMP-95 (Table 3); parameters: KU (eq) / ICI (eq): unit not given here; settings: for pH (eq): pH of paint; for ICI (eq) / KU (eq): paint viscosity, 23PVC 50-VOC Vinyl Acrylic Semi-Gloss White, HASE thickener
Excerpt: The neutralizing agents shown in Table 2 were further tested in a paint formulation 23[…] Vinyl Acrylic Semi-Gloss White, using a HASE thickener. Gloss measurements, as well as yellowing were compared to AMP-95.

[2] = Formulations of Table 2 tested in paint for gloss and yellowness (Table 4)
Procedure: The formulations shown in Table 2 were tested in 23PVC50-VOC vinyl acrylic (UCAR379G) white and tested for gloss and yellowness.

| pH (eq) [1] | ICI (eq) [1] | KU (eq) [1] | pH ([2]; pH of paint, 23PVC50-VOC vinyl acrylic (UCAR379G) white) | ICI (eq) ([2]; paint viscosity) | KU (eq) ([2]; paint viscosity) | Compound |
| --- | --- | --- | --- | --- | --- | --- |
| 8.61 | 1.052 | 94.3 | – | – | – | C[C@H](N)C(=O)O [L-Alanine (neutralized w/NaOH), L-Alanine] |
| 9.7 | 1.023 | 94 | – | – | – | NCC(=O)O [Glycine (neutralized w/NaOH), Glycine] |
| 8.77 | 1.110 | 95.2 | 8.78 | 1.110 | 95.2 | CC(C)(N)CO [AMP-95, 2-amino-2-methyl-1-propanol, reference compound] |

| Compound | pH (eq) [1] | ICI (eq) [1] | KU (eq) [1] | pH ([2]; pH of paint, 23PVC50-VOC vinyl acrylic (UCAR379G) white) | ICI (eq) ([2]; paint viscosity) | KU (eq) ([2]; paint viscosity) |
| --- | --- | --- | --- | --- | --- | --- |
| DL-Aspartic Acid Potassium Salt Hemihydrate | 8.54 | 1.046 | 90.8 | – | – | – |
